Patent publication US20240109881A1, “Heteroaryl Compounds as Ligand Directed Degraders of IRAK4” (Bristol-Myers Squibb Company, priority 2022, published 2024)

What follows are compounds tested against T1, IRAK4 (Homo sapiens, UniProt Q9NWZ3) (assay: LVL THP1 HTRF (THP1 Homogeneous Time Resolved Fluorescence)). Details: THP1 cells, 18 h incubation with compound.
T1 construct: endogenous in cells; host or cells: THP-1 cells
T1 sequence (Q9NWZ3 1-460): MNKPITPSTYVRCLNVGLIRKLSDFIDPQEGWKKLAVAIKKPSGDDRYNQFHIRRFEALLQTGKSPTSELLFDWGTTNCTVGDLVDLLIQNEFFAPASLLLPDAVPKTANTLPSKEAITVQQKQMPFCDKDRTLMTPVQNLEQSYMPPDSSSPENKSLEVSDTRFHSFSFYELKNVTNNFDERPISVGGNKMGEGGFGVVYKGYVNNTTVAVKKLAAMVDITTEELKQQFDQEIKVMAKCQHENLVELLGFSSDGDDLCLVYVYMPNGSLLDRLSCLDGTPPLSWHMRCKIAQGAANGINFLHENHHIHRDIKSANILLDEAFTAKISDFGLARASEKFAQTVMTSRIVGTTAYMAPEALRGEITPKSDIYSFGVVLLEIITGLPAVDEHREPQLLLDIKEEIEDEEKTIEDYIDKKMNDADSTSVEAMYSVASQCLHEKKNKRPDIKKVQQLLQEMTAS
Assay type: cell-based
How it was run: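 THP-1 cells in phenol red-free RPMI with 10% FBS were dosed with compound (20 nL in DMSO) for 18 h at 37° C. After 2 h lysis, IRAK4 was detected with anti-IRAK4-d2/anti-IRAK4-K HTRF antibodies for 18 h at room temperature and read at 665/615 nm; a parallel CTG plate was run.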

Compound | LVL THP1 HTRF YMIN
C[C@H](C#N)Nc1cc(-n2ncc3cc(C#N)c(N)nc32)ncc1C(=O)N[C@H]1CC[C@H](CCN2CCN(c3ccc(C4CCC(=O)NC4=O)cc3)C(C(F)(F)F)C2)CC1 (some centres unmarked) [P-186] | 5.7%
C[C@H](C#N)Nc1cc(-n2ncc3cc(C#N)c(N)nc32)ncc1C(=O)N[C@H]1CC[C@H](CCN2CCN(c3ccc(C4CCC(=O)NC4=O)cc3)C(C(F)(F)F)C2)CC1 (some centres unmarked) [P-181] | 18.3%
C[C@H](C#N)Nc1cc(-c2ccc3cc(C#N)cnn23)ncc1C(=O)N[C@H]1CC[C@H](CCN2CCN(c3ccc(C4CCC(=O)NC4=O)cc3)CC2)CC1 (some centres unmarked) [P-144] | 0.8%

Same assay, conditions: THP1 cells, 18 h incubation with compound, read-out: LVL THP1 HTRF EC50

Compound | DC50
C[C@H](C#N)Nc1cc(-n2ncc3cc(C#N)c(N)nc32)ncc1C(=O)N[C@H]1CC[C@H](CCN2CCN(c3ccc(C4CCC(=O)NC4=O)cc3)C(C(F)(F)F)C2)CC1 (some centres unmarked) [P-186] | 29 nM
C[C@H](C#N)Nc1cc(-n2ncc3cc(C#N)c(N)nc32)ncc1C(=O)N[C@H]1CC[C@H](CCN2CCN(c3ccc(C4CCC(=O)NC4=O)cc3)C(C(F)(F)F)C2)CC1 (some centres unmarked) [P-181] | 112 nM
C[C@H](C#N)Nc1cc(-c2ccc3cc(C#N)cnn23)ncc1C(=O)N[C@H]1CC[C@H](CCN2CCN(c3ccc(C4CCC(=O)NC4=O)cc3)CC2)CC1 (some centres unmarked) [P-144] | 13 nM

The compounds below were run against T1, IRAK4 (assay: ALE THP1 HTRF (Advanced Lipoxidation End Product THP1 Homogeneous Time Resolved Fluorescence)). Details: THP1 cells.
Assay type: cell-based
How it was run: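 Cells lysed 45 min at room temperature; lysates normalized to total protein by BCA. Total IRAK4 detected by HTRF sandwich (anti-IRAK4-d2 plus anti-IRAK4-cryptate), incubated overnight in the dark at room temperature, read on a time-resolved fluorescence plate reader.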

Compound | ALE THP1 HTRF YMIN | EC50
C[C@H](C#N)Nc1cc(-n2ncc3cc(C#N)c(N)nc32)ncc1C(=O)N[C@H]1CC[C@H](CCN2CCN(c3ccc(C4CCC(=O)NC4=O)cc3)C(C(F)(F)F)C2)CC1 (some centres unmarked) [P-186] | 13.9% | 34 nM
C[C@H](C#N)Nc1cc(-n2ncc3cc(C#N)c(N)nc32)ncc1C(=O)N[C@H]1CC[C@H](CCN2CCN(c3ccc(C4CCC(=O)NC4=O)cc3)C(C(F)(F)F)C2)CC1 (some centres unmarked) [P-181] | 27.7% | 168 nM
N#Cc1cnn2c(-c3cc(NC4CCCC4)c(C(=O)NC4CCC(CCN5CCN(c6ccc(C7CCC(=O)NC7=O)cc6)CC5)CC4)cn3)ccc2c1 (centres unmarked) [P-75] | 11.4% | 62 nM
O=C1CCC(c2ccc(N3CCN(CCC4CCC(NC(=O)c5cnc(Nc6ccc7ncsc7c6)cc5NC5CCCC5)CC4)CC3)cc2)C(=O)N1 (centres unmarked) [P-73] | 8.1% | 58 nM
N#Cc1cnc2c(cnn2-c2cc(NC3CCCC3)c(-c3cn([C@H]4CC[C@H](CN5CCC(C(=O)Nc6ccc(C7CCC(=O)NC7=O)cc6)CC5)CC4)nn3)cn2)c1 (some centres unmarked) [P-47] | 14.1% | 110 nM
N#Cc1cnc2c(cnn2-c2cc(NC3CCCC3)c(C(=O)NC3CCC(CCN4CCC(c5ccc(C6CCC(=O)NC6=O)cc5)CC4)CC3)cn2)c1 (centres unmarked) [P-56] | 7.7% | 426 nM
C[C@@H]1CN(c2ccc3c(c2)C(=O)N(C2CCC(=O)NC2=O)C3=O)C[C@H](C)N1C(=O)C1CCC(NC(=O)c2cnc(-n3ncc4cc(C#N)cnc43)cc2NC2CCCC2)CC1 (some centres unmarked) [P-13] | 43.4% | 82 nM
C[C@@H]1CN(c2ccc3c(c2)C(=O)N(C2CCC(=O)NC2=O)C3=O)C[C@H](C)N1CC1CCC(NC(=O)c2cnc(-n3ncc4cc(C#N)cnc43)cc2NC2CCCC2)CC1 (some centres unmarked) [P-32] | 21.0% | 547 nM
N#Cc1cnc2c(cnn2-c2cc(NC3CCCC3)c(-c3cn([C@H]4CC[C@H](C(=O)N5CCC(C(=O)Nc6ccc(N7CCC(=O)NC7=O)cc6)CC5)CC4)nn3)cn2)c1 [P-45, 1-[4-[4-[6-(5-Cyanopyrazolo[3,4-b]pyridin-1-yl)-4-(cyclopentylamino)-3-pyridyl]triazol-1-yl]cyclohexanecarbonyl]-N-[4-(2,4-dioxohexahydropyrimidin-1-yl)phenyl]piperidine-4-carboxamide] | 11.4% | 28 nM
C[C@H](C#N)Nc1cc(-n2ncc3cc(C#N)cnc32)ncc1C(=O)N[C@H]1CC[C@H](CCN2CCN(c3ccc(C4CCC(=O)NC4=O)cc3)CC2)CC1 (stereo in doubt) [P-128] | 14.7% | 47 nM
N#Cc1cnc2c(cnn2-c2cc(NC3CCCC3)c(-c3cn([C@H]4CC[C@H](CCN5CCN(c6ccc(C7CCC(=O)NC7=O)cc6)CC5)CC4)nn3)cn2)c1 (some centres unmarked) [P-54, 1-(4-(Cyclopentylamino)-5-(1-((1r,4r)-4-(2-(4-(4-(2,6-dioxopiperidin-3-yl)phenyl)piperazin-1-yl)ethyl)cyclohexyl)-1H-1,2,3-triazol-4-yl)pyridin-2-yl)-1H-pyrazolo[3,4-b]pyridine-5-carbonitrile] | 14.6% | 31 nM
CCNc1cc(Nc2ccc3ncc(F)cc3n2)ncc1C(=O)N[C@H]1CC[C@H](CCN2CCN(c3ccc(C4CCC(=O)NC4=O)cc3)CC2)CC1 (some centres unmarked) [P-138] | 42.1% | 1280 nM
N#Cc1cnc2c(cnn2-c2cc(NC3CC3)c(C(=O)N[C@H]3CC[C@H]([C@@H]4C[C@H]4N4CCN(c5ccc(C6CCC(=O)NC6=O)cc5)CC4)CC3)cn2)c1 (relative stereo) [P-111] | 15.6% | 24 nM
N#Cc1cnc2c(cnn2-c2cc(NC3CCCC3)c(C(=O)N[C@H]3CC[C@H](CN4CCC(CCc5ccc(C6CCC(=O)NC6=O)cc5)CC4)CC3)cn2)c1 (some centres unmarked) [P-43] | 14.7% | 312 nM
N#Cc1cnc2c(cnn2-c2cc(NC3CCCC3)c(C(=O)NC3CCC(CCN4CCC(Nc5cccc(C6CCC(=O)NC6=O)c5)CC4)CC3)cn2)c1 (centres unmarked) [P-52] | 13.4% | 39 nM
N#Cc1cnc2c(cnn2-c2cc(NC3CCCC3)c(-c3cn([C@H]4CC[C@H](CN5CCC(C(=O)Nc6ccc(N7CCC(=O)NC7=O)cc6)CC5)CC4)nn3)cn2)c1 [P-34] | 12.9% | 597 nM

These reach a lower EC50. Values come first.

ALE THP1 HTRF YMIN | EC50 | Compound
5.9% | 4 nM | C[C@H](C#N)Nc1cc(-c2ccc3cc(C#N)cnn23)ncc1C(=O)N[C@H]1CC[C@H](CCN2CCN(c3ccc(C4CCC(=O)NC4=O)cc3)CC2)CC1 (some centres unmarked) [P-144]
16.0% | 19 nM | N#Cc1cnc2c(cnn2-c2cc(NC3CC3)c(C(=O)N[C@H]3CC[C@H](C4C[C@@H]4N4CCN(c5ccc(C6CCC(=O)NC6=O)cc5)CC4)CC3)cn2)c1 (single isomer, unassigned) [P-110]
6.1% | < 1 nM | O=C1CCC(c2ccc(N3CCN(CC[C@H]4CC[C@H](NC(=O)c5cnc(Nc6ccc7[nH]c(=O)sc7c6)cc5NC5CC5)CC4)CC3)cc2)C(=O)N1 (some centres unmarked) [P-141]
40.3% | 22 nM | C[C@@H]1CN(C(=O)C2CCC(NC(=O)c3cnc(-n4ncc5cc(C#N)cnc54)cc3NC3CCCC3)CC2)CCN1c1ccc2c(c1)C(=O)N(C1CCC(=O)NC1=O)C2=O (some centres unmarked) [P-21]
8.7% | 23 nM | N#Cc1cnc2c(cnn2-c2cc(NCC(F)(F)F)c(C(=O)N[C@H]3CC[C@H](CCN4CCN(c5ccc(C6CCC(=O)NC6=O)cc5)CC4)CC3)cn2)c1 (some centres unmarked) [P-112]
7.6% | 9 nM | C[C@@H](CO)Nc1cc(-n2ncc3cc(C#N)cnc32)ncc1C(=O)NC1CCC(CCN2CCN(c3ccc(C4CCC(=O)NC4=O)cc3)CC2)CC1 (some centres unmarked) [P-78]
20.0% | 15 nM | N#Cc1cnc2c(cnn2-c2cc(NC3CC3)c(C(=O)N[C@H]3CC[C@H](CN4CCC5(CCN(c6ccc7c(c6)CN(C6CCC(=O)NC6=O)C7=O)CC5)C4)CC3)cn2)c1 (some centres unmarked) [P-130]
34.8% | 20 nM | N#Cc1cnc2c(cnn2-c2cc(NC3CCCC3)c(C(=O)NC3CCC(CC(=O)N4CCN(c5ccc(C6CCC(=O)NC6=O)cc5)CC4)CC3)cn2)c1 (centres unmarked) [P-23]
7.9% | 13 nM | CS(=O)(=O)N1CCC(Nc2cc(-n3ncc4cc(C#N)cnc43)ncc2C(=O)N[C@H]2CC[C@H](CCN3CCN(c4ccc(C5CCC(=O)NC5=O)cc4)CC3)CC2)CC1 (some centres unmarked) [P-132]
7.7% | 18 nM | N#Cc1cnc2c(cnn2-c2cc(NC3CCC(C(N)=O)CC3)c(C(=O)N[C@H]3CC[C@H](CCN4CCN(c5ccc(C6CCC(=O)NC6=O)cc5)CC4)CC3)cn2)c1 (some centres unmarked) [P-137]
8.3% | 6 nM | N#Cc1cnc2c(cnn2-c2cc(N[C@H]3CCC[C@@H]3O)c(C(=O)NC3CCC(CCN4CCN(c5ccc(C6CCC(=O)NC6=O)cc5)CC4)CC3)cn2)c1 (some centres unmarked) [P-63]
10.9% | 8 nM | CCNc1cc(-n2ncc3cc(C#N)cnc32)ncc1C(=O)NC1CCC(CCN2CCN(c3ccc(C4CCC(=O)NC4=O)cc3)CC2)CC1 (centres unmarked) [P-71]
9.1% | 14 nM | CCCNc1cc(-n2ncc3cc(C#N)cnc32)ncc1C(=O)N[C@H]1CC[C@H](CCN2CCN(c3ccc(C4CCC(=O)NC4=O)cc3)CC2)CC1 (some centres unmarked) [P-107]
5.3% | 3 nM | N#Cc1cc2cnn(-c3cc(NC4CC4)c(C(=O)N[C@H]4CC[C@H](CCN5CCN(c6ccc(C7CCC(=O)NC7=O)cc6)CC5)CC4)cn3)c2nc1N (some centres unmarked) [P-131]
11.2% | 6 nM | N#Cc1cnc2c(cnn2-c2cc(N[C@H]3CCC[C@H]3O)c(C(=O)NC3CCC(CCN4CCN(c5ccc(C6CCC(=O)NC6=O)cc5)CC4)CC3)cn2)c1 (some centres unmarked) [P-66]
